Source: EP0414533A1, “Use of iodopropargyl esters of alpha-amino acid derivatives as antimicrobial agents” (ROHM AND HAAS COMPANY, priority 1989, dated 1991)
In brackets after ≈: the same amount, converted by molar mass. Read-outs that look alike come from different tables or passages of the source.

Experiments:
Format in all cases: cell-based
[1] = system: Phytophthora capsici (PHY); assay: In-vitro plant fungicide test; conditions: Phytophthora capsici
ALT = assay: In-vitro plant fungicide test; conditions: Table IVb, read-out: % Control at (ppm) indicated ALT
Pythium ultimum (PYU) = assay: In-vitro plant fungicide test; conditions: Globisporangium ultimum
Septoria nodorum (SEP) = assay: In-vitro plant fungicide test; conditions: Parastagonospora nodorum
MON = assay: In-vitro plant fungicide test; conditions: Table IVb, read-out: % Control at (ppm) indicated MON
Piricularia oryzae (PIR) = assay: microbe, parasite or virus in culture
COL = assay: In-vitro plant fungicide test; conditions: Table IVb, read-out: % Control at (ppm) indicated COL
PSH = assay: In-vitro plant fungicide test; conditions: Table IVb, read-out: % Control at (ppm) indicated PSH
THREE FUNGI = assay: MIC test against three fungi in Mycophile Broth, pH 5.0, read after 8 days (Table VII); conditions: 192 h, serial dilutions from 50 ppm, read after 8 days of incubation
Botrytis cinerea (BOC) = assay: In-vitro plant fungicide test; conditions: Botrytis cinerea

## CC(C)(C)OC(=O)NCC(=O)OCC#CI [Compound 1, N-t-butoxycarbonylglycine iodopropargyl ester]
[1]; 1.5 ppm, Table IVb, read-out: % Control at (ppm) indicated PHY
  inhibition of growth at 1.5 ppm: 50%
[1]; 6 ppm, Table IVb, read-out: % Control at (ppm) indicated PHY
  inhibition of growth at 6 ppm: 100%
[1]; Table IVa, read-out: % Control at 25 ppm PHY
  inhibition of growth at 25 ppm: 100%
[1]; Table IVb, read-out: % Control at (ppm) indicated PHY
  inhibition of growth at 25 ppm: 100%
[1]; .2 ppm, Table IVb, read-out: % Control at (ppm) indicated PHY
  inhibition of growth at 0.2 ppm: 0%
[1]; .4 ppm, Table IVb, read-out: % Control at (ppm) indicated PHY
  inhibition of growth at 0.4 ppm: 0%
[1]; .8 ppm, Table IVb, read-out: % Control at (ppm) indicated PHY
  inhibition of growth at 0.8 ppm: 0%
ALT; 1.5 ppm
  inhibition of growth at 1.5 ppm: 0%
ALT; 3 ppm
  inhibition of growth at 3 ppm: 50%
ALT; 6 ppm
  inhibition of growth at 6 ppm: 50%
ALT; 12 ppm
  inhibition of growth at 12 ppm: 100%
ALT; 25 ppm
  inhibition of growth at 25 ppm: 100%
ALT; .2 ppm
  inhibition of growth at 0.2 ppm: 0%
ALT; .4 ppm
  inhibition of growth at 0.4 ppm: 0%
ALT; .8 ppm
  inhibition of growth at 0.8 ppm: 0%
Pythium ultimum (PYU); 1.5 ppm, Table IVb, read-out: % Control at (ppm) indicated PYU
  inhibition of growth at 1.5 ppm: 100%
Pythium ultimum (PYU); 6 ppm, Table IVb, read-out: % Control at (ppm) indicated PYU
  inhibition of growth at 6 ppm: 100%
Pythium ultimum (PYU); Table IVa, read-out: % Control at 25 ppm PYU
  inhibition of growth at 25 ppm: 100%
Pythium ultimum (PYU); Table IVb, read-out: % Control at (ppm) indicated PYU
  inhibition of growth at 25 ppm: 100%
Pythium ultimum (PYU); .2 ppm, Table IVb, read-out: % Control at (ppm) indicated PYU
  inhibition of growth at 0.2 ppm: 0%
Pythium ultimum (PYU); .4 ppm, Table IVb, read-out: % Control at (ppm) indicated PYU
  inhibition of growth at 0.4 ppm: 0%
Pythium ultimum (PYU); .8 ppm, Table IVb, read-out: % Control at (ppm) indicated PYU
  inhibition of growth at 0.8 ppm: 0%
Septoria nodorum (SEP); 1.5 ppm, Table IVb, read-out: % Control at (ppm) indicated SEP
  inhibition of growth at 1.5 ppm: 0%
Septoria nodorum (SEP); 6 ppm, Table IVb, read-out: % Control at (ppm) indicated SEP
  inhibition of growth at 6 ppm: 100%
Septoria nodorum (SEP); Table IVa, read-out: % Control at 25 ppm SEP
  inhibition of growth at 25 ppm: 100%
Septoria nodorum (SEP); Table IVb, read-out: % Control at (ppm) indicated SEP
  inhibition of growth at 25 ppm: 100%
Septoria nodorum (SEP); .2 ppm, Table IVb, read-out: % Control at (ppm) indicated SEP
  inhibition of growth at 0.2 ppm: 0%
Septoria nodorum (SEP); .4 ppm, Table IVb, read-out: % Control at (ppm) indicated SEP
  inhibition of growth at 0.4 ppm: 0%
Septoria nodorum (SEP); .8 ppm, Table IVb, read-out: % Control at (ppm) indicated SEP
  inhibition of growth at 0.8 ppm: 0%
MON; 1.5 ppm
  inhibition of growth at 1.5 ppm: 75%
MON; 6 ppm
  inhibition of growth at 6 ppm: 100%
MON; 25 ppm
  inhibition of growth at 25 ppm: 100%
MON; .2 ppm
  inhibition of growth at 0.2 ppm: 0%
MON; .4 ppm
  inhibition of growth at 0.4 ppm: 0%
MON; .8 ppm
  inhibition of growth at 0.8 ppm: 0%
Piricularia oryzae (PIR); 1.5 ppm, read-out: % Control at (ppm) indicated PIR
  inhibition of growth at 1.5 ppm: 50%
Piricularia oryzae (PIR); 6 ppm, read-out: % Control at (ppm) indicated PIR
  inhibition of growth at 6 ppm: 100%
Piricularia oryzae (PIR); 25 ppm, read-out: % Control at (ppm) indicated PIR
  inhibition of growth at 25 ppm: 100%
Piricularia oryzae (PIR); .2 ppm, read-out: % Control at (ppm) indicated PIR
  inhibition of growth at 0.2 ppm: 0%
Piricularia oryzae (PIR); .4 ppm, read-out: % Control at (ppm) indicated PIR
  inhibition of growth at 0.4 ppm: 0%
Piricularia oryzae (PIR); .8 ppm, read-out: % Control at (ppm) indicated PIR
  inhibition of growth at 0.8 ppm: 0%
Piricularia oryzae (PIR); read-out: % Control at 25 ppm PIR
  inhibition of growth at 25 ppm: 100%
COL; 1.5 ppm
  inhibition of growth at 1.5 ppm: 0%
COL; 3 ppm
  inhibition of growth at 3 ppm: 0%
COL; 6 ppm
  inhibition of growth at 6 ppm: 0%
COL; 12 ppm
  inhibition of growth at 12 ppm: 95%
COL; 25 ppm
  inhibition of growth at 25 ppm: 95%
COL; .2 ppm
  inhibition of growth at 0.2 ppm: 0%
COL; .4 ppm
  inhibition of growth at 0.4 ppm: 0%
COL; .8 ppm
  inhibition of growth at 0.8 ppm: 0%
PSH; 1.5 ppm
  inhibition of growth at 1.5 ppm: 100%
PSH; 6 ppm
  inhibition of growth at 6 ppm: 100%
PSH; 25 ppm
  inhibition of growth at 25 ppm: 100%
PSH; .2 ppm
  inhibition of growth at 0.2 ppm: 0%
PSH; .4 ppm
  inhibition of growth at 0.4 ppm: 0%
PSH; .8 ppm
  inhibition of growth at 0.8 ppm: 75%
THREE FUNGI; Aspergillus niger, read-out: MIC ANIG
  MIC: 3.2 µg/mL (≈ 9.44 µM)
THREE FUNGI; Aureobasidium pullulans, read-out: MIC APUL
  MIC: 12.5 µg/mL (≈ 36.9 µM)
THREE FUNGI; Gloeophyllum trabeum, read-out: MIC GTRA
  MIC: 1.6 µg/mL (≈ 4.72 µM)
Botrytis cinerea (BOC); 1.5 ppm, Table IVb, read-out: % Control at (ppm) indicated BOC
  inhibition of growth at 1.5 ppm: 0%
Botrytis cinerea (BOC); 6 ppm, Table IVb, read-out: % Control at (ppm) indicated BOC
  inhibition of growth at 6 ppm: 0%
Botrytis cinerea (BOC); Table IVa, *=Phytotoxic, read-out: % Control at 25 ppm BOC
  inhibition of growth at 25 ppm: 100%
Botrytis cinerea (BOC); Table IVb, read-out: % Control at (ppm) indicated BOC
  inhibition of growth at 25 ppm: 100%
Botrytis cinerea (BOC); .2 ppm, Table IVb, read-out: % Control at (ppm) indicated BOC
  inhibition of growth at 0.2 ppm: 0%
Botrytis cinerea (BOC); .4 ppm, Table IVb, read-out: % Control at (ppm) indicated BOC
  inhibition of growth at 0.4 ppm: 0%
Botrytis cinerea (BOC); .8 ppm, Table IVb, read-out: % Control at (ppm) indicated BOC
  inhibition of growth at 0.8 ppm: 0%
